Results as given in the supplement of paper PMC8183993.
Where a name gives a salt, the structure may show the parent alone.

Experiments:
Details in all cases: 24 h
U2OS [1] = experiment: nuclei count in HPG assay relative to DMSO (% of DMSO); higher = more viable cells
Procedure: (§1)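 Validation screen in U2OS cells: hits tested at 1, 3 and 10 uM for 24 h in duplicate plates. Translation was read by OPP incorporation (1 h pulse) and HPG incorporation (30 min in methionine-free medium), quantified by high-throughput microscopy alongside nuclei counts. All values are normalised to DMSO (= 100).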

U2OS [2] = experiment: nuclei count in OPP assay relative to DMSO (% of DMSO); higher = more viable cells
Procedure: as §1

U2OS [3] = experiment: mean HPG incorporation (global translation) relative to DMSO (% of DMSO); higher = more protein synthesis
Procedure: as §1

U2OS [4] = experiment: mean OPP incorporation (global translation) relative to DMSO (% of DMSO); higher = more protein synthesis
Procedure: as §1

| Compound | nuclei count in HPG assay (U2OS [1]; 1 µM) | nuclei count in HPG assay (U2OS [1]; 3 µM) | nuclei count in HPG assay (U2OS [1]; 10 µM) | nuclei count in OPP assay (U2OS [2]; 1 µM) | nuclei count in OPP assay (U2OS [2]; 3 µM) | nuclei count in OPP assay (U2OS [2]; 10 µM) | mean HPG incorporation (U2OS [3]; 1 µM) | mean HPG incorporation (U2OS [3]; 3 µM) | mean HPG incorporation (U2OS [3]; 10 µM) | mean OPP incorporation (U2OS [4]; 1 µM) | mean OPP incorporation (U2OS [4]; 3 µM) | mean OPP incorporation (U2OS [4]; 10 µM) |
| --- | --- | --- | --- | --- | --- | --- | --- | --- | --- | --- | --- | --- |
| CC(C)(C)c1nc(-c2cccc(NS(=O)(=O)c3c(F)cccc3F)c2F)c(-c2ccnc(N)n2)s1 | 96.6 | 100 | 104 | 101 | 102 | 104 | 50.8 | 48 | 106 | 102 | 97.2 | 114 |
| CCn1c(-c2nonc2N)nc2cnc(Oc3cccc(NC(=O)c4ccc(OCCN5CCOCC5)cc4)c3)cc21 | 99 | 96.3 | 76.4 | 102 | 101 | 82.6 | 73.1 | 71.8 | 76.4 | 97.1 | 97.5 | 97.5 |
| COc1cc(COc2cc(N)c(Cl)cc2C(=O)CCC2CCN(CCNS(C)(=O)=O)CC2)cc(OC)c1 | 100 | 106 | 90.1 | 95.1 | 97.5 | 79.8 | 82.2 | 83.4 | 58.1 | 121 | 122 | 120 |
| COc1cc(NC(=O)c2ccccn2)ccc1Cl | 103 | 95 | 96.2 | 105 | 91 | 88.2 | 106 | 113 | 116 | 83.8 | 79.6 | 70.9 |
| COc1cc2c(cc1C(F)(F)F)N(C(=O)Nc1cc(F)cc(-c3cccnc3)c1)CC2 | 95.9 | 95 | 89 | 96.9 | 93.9 | 88.4 | 95.1 | 98.3 | 74.3 | 102 | 112 | 117 |
| C[C@@H]1CN(CC(=O)Nc2ccc3c(c2)Cc2cccc(-c4cc(=O)cc(N5CCOCC5)o4)c2S3)C[C@H](C)O1 | 98.7 | 89.5 | 81.6 | 96.9 | 88 | 92.3 | 70.2 | 64.9 | 55 | 103 | 108 | 102 |
| Cc1c(C)c2c(c(C)c1O)CC[C@](C)(CN1CCN(c3cc(N4CCCC4)nc(N4CCCC4)n3)CC1)O2 | 94.9 | 102 | 98 | 95.4 | 101 | 102 | 90.2 | 93.4 | 87.1 | 98.2 | 97.2 | 111 |
| O=c1cc(N2CCOCC2)oc2c(-c3cccc4c3sc3ccccc34)cccc12 | 96.8 | 89.5 | 79.6 | 97.4 | 87.4 | 89.1 | 66.7 | 74.8 | 61.8 | 92.6 | 107 | 104 |
| COc1ccccc1N1CCN(CCN2C(=O)c3ccccc3C(C)(C)C2=O)CC1 [ARC 239 dihydrochloride] | 106 | 101 | 98.3 | 98.8 | 101 | 100 | 102 | 116 | 122 | 100 | 117 | 120 |
| CNC(=O)c1cccc(-c2ccc3c(N4CCOC[C@@H]4C)nc(N4CCOC[C@@H]4C)nc3n2)c1 [AZD2014] | 84.1 | 78 | 75 | 85.4 | 79.4 | 72.2 | 44.3 | 36.7 | 34.8 | 57.6 | 36.3 | 35.6 |
| COc1cc(C)c(/C=C/C(C)=C/C=C/C(C)=C/C(=O)O)c(C)c1C [Acitretin] | 91.8 | 95.3 | 95.7 | 91.4 | 89.8 | 94.2 | 99.8 | 108 | 87 | 107 | 109 | 109 |
| CCC(=O)CCCCC[C@@H]1NC(=O)[C@H]2CCCCN2C(=O)[C@H]([C@@H](C)CC)NC(=O)[C@H](Cc2cn(OC)c3ccccc23)NC1=O [Apicidin] | 108 | 96.3 | 88 | 106 | 95.4 | 91.7 | 132 | 135 | 85 | 92.2 | 83.9 | 55.8 |
| Cc1c(CN2CCN(C(=O)[C@H](C)O)CC2)sc2c(N3CCOCC3)nc(-c3cnc(N)nc3)nc12 [Apitolisib (GDC-0980, RG7422)] | 80.7 | 76.3 | 75 | 72.8 | 76.9 | 73.3 | 44.1 | 40.7 | 41.4 | 60.3 | 35.8 | 35.4 |
| Cc1c(-c2ccc(O)cc2)n(Cc2ccc(OCCN3CCCCCC3)cc2)c2ccc(O)cc12 [Bazedoxifene HCl] | 103 | 98.5 | 80.3 | 96.8 | 86.5 | 77.9 | 84.1 | 84.9 | 85.2 | 109 | 121 | 133 |
| CCN(CC)CCOc1ccc(C(=C(Cl)c2ccccc2)c2ccccc2)cc1 [Clomiphene citrate (Z,E)] | 91.3 | 95.3 | 86.7 | 88 | 98.6 | 93.3 | 90.2 | 115 | 123 | 116 | 124 | 136 |
| C=CC[C@@H]1/C=C(\C)C[C@H](C)C[C@H](OC)[C@H]2O[C@@](O)(C(=O)C(=O)N3CCCC[C@H]3C(=O)O[C@H](/C(C)=C/[C@@H]3CC[C@@H](O)[C@H](OC)C3)[C@H](C)[C@@H](O)CC1=O)[C@H](C)C[C@@H]2OC [FK-506 (Tacrolimus)] | 102 | 98.7 | 99.9 | 98.7 | 100 | 93.3 | 121 | 125 | 133 | 115 | 123 | 134 |
| CC1=C(/C=C/C(C)=C/C=C/C(C)=C/C(=O)Nc2ccc(O)cc2)C(C)(C)CCC1 [Fenretinide] | 102 | 93.9 | 86.7 | 97.1 | 96.5 | 87.9 | 98.1 | 93.5 | 96.7 | 107 | 109 | 117 |
| C[C@]12CC[C@@H]3c4ccc(O)cc4C[C@@H](CCCCCCCCC[S+]([O-])CCCC(F)(F)C(F)(F)F)[C@H]3[C@@H]1CC[C@@H]2O (stereo partly drawn) [Fulvestrant] | 97 | 101 | 89.1 | 98.7 | 96.4 | 93.8 | 118 | 125 | 115 | 115 | 123 | 115 |
| CC(=O)O[C@@H]1C[C@H]2C(C)(C)C(=O)C=C[C@]2(C)[C@H]2CC[C@@]3(C)[C@H](c4ccoc4)OC(=O)[C@H]4O[C@]43[C@@]21C [Gedunin] | 103 | 101 | 94.7 | 97.7 | 96.4 | 95.9 | 91.2 | 88.7 | 66.3 | 112 | 114 | 115 |
